These results are taken from ChEMBL document CHEMBL3352358, “Discovery of 2-(cyclohexylmethylamino)pyrimidines as a new class of reversible valosine containing protein inhibitors” (J Med Chem, 2014).

Bounds are passed on as bounds.

Assay [1] deals with Transitional endoplasmic reticulum ATPase (Homo sapiens, UniProt P55072). In words: biochemical. The format is cell-based.
Description: Inhibition of human full length VCP (2 to 806 residues) expressed in High5 insect cells assessed as reduction in ATPase activity by measuring ADP formation by NADH coupled assay
Assay [2] in a line: Inhibition of cell proliferation of human HCT116 cells after 72 hrs by thermostable firefly luciferase based assay. Conditions: Homo sapiens, HCT-116, 72 h; read-out: IC50. The format is functional, HCT-116.

Sequence of Transitional endoplasmic reticulum ATPase (P55072 whole entry): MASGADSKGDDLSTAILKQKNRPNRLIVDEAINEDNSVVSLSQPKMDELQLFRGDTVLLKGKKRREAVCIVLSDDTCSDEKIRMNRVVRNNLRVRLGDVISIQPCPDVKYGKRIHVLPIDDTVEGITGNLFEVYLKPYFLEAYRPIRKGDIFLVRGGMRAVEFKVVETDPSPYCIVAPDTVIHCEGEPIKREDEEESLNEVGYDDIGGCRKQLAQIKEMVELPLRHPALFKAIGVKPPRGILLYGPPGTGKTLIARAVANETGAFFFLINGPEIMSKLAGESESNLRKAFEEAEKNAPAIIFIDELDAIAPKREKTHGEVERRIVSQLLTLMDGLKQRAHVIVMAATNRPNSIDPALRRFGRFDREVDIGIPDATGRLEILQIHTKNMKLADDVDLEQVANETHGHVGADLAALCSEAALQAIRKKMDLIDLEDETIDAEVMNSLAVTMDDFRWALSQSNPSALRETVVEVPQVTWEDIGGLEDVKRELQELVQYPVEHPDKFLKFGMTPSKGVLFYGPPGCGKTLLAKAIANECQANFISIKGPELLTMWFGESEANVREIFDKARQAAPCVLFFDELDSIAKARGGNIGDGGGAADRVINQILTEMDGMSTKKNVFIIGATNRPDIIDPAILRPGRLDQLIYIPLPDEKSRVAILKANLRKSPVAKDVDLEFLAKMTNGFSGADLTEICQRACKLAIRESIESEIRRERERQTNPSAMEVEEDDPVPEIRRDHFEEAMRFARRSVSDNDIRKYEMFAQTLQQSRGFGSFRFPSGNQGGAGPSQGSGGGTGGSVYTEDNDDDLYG

By IC50 is commonly meant the concentration at which inhibition is half-maximal. On to `O=C(O)[C@H]1CC[C@H](CNc2nc(NCc3ccccc3)cc(-c3ccccc3)n2)CC1`, for which the IC50 is 27 nM in assay [1] and over 20000 nM in assay [2].
On to `CS(=O)(=O)NC(=O)[C@H]1CC[C@H](CNc2nc(NCc3ccccc3)cc(-c3ccccc3)n2)CC1`, for which the IC50 in assay [1] is 133 nM; in assay [2], over 20000 nM.
In the case of `CC(=O)c1ccc(-c2cc(NCc3ccccc3)nc(NC[C@H]3CC[C@H](C(N)=O)CC3)n2)cc1`, the figures for the IC50 in assay [1] and in assay [2] were 102 nM and over 10000 nM, respectively.
As for `COc1cccc(-c2cc(NCc3ccccc3)nc(NC[C@H]3CC[C@H](C(N)=O)CC3)n2)c1`, the IC50 in assay [1] turned out to be 149 nM; in assay [2] it was 6660 nM.
As for `NC(=O)[C@H]1CC[C@H](CNc2nc(NCc3ccccc3)cc(-c3ccc4[nH]ccc4c3)n2)CC1`, the values for the half-maximal inhibitory concentration (IC50) in assay [1] and in assay [2] were 82 nM and 5640 nM, respectively.
The like results for `NC(=O)[C@H]1CC[C@H](CNc2nc(NCc3ccccc3)cc(-c3ccc(F)cc3)n2)CC1` were, in that order, 299 nM and over 10000 nM.
The like results for `NC(=O)[C@H]1CC[C@H](CNc2nc(NCc3ccccc3)cc(-c3ccc(CO)cc3)n2)CC1` were, in that order, 89 nM and 7890 nM.
Regarding `CC(=O)Nc1ccc(-c2cc(NCc3ccccc3)nc(NC[C@H]3CC[C@H](C(N)=O)CC3)n2)cc1`, the IC50 in assay [1] came out at 59 nM; in assay [2], 4310 nM.
